Measurements reported in the supplement of paper PMC10307832.

Assays:
Assay in all cases: relative viability (nuclei count vs DMSO), 5 days (fraction); higher = more cells survive
Bexarotene + Navitoclax = compound: C=C(c1ccc(C(=O)O)cc1)c1cc2c(cc1C)C(C)(C)CCC2(C)C [Bexarotene] + CC1(C)CCC(c2ccc(Cl)cc2)=C(CN2CCN(c3ccc(C(=O)NS(=O)(=O)c4ccc(N[C@H](CCN5CCOCC5)CSc5ccccc5)c(S(=O)(=O)C(F)(F)F)c4)cc3)CC2)C1 [Navitoclax] (partner 0.5 µM)
How it was run: (§1)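 Dosing by pin tool came one day after lung cancer cell lines were seeded in 1536-well plates, using either one drug or a fixed anchor-drug dose plus five library-drug doses (not always all listed) in √10 steps. After 5 days, nuclei were counted on 4× images. Relative viability is treated-well nuclei count divided by vehicle-well nuclei count, and values are medians of duplicate plates.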

Bexarotene + Luminespib = compound: C=C(c1ccc(C(=O)O)cc1)c1cc2c(cc1C)C(C)(C)CCC2(C)C [Bexarotene] + CCNC(=O)c1noc(-c2cc(C(C)C)c(O)cc2O)c1-c1ccc(CN2CCOCC2)cc1 [Luminespib] (partner 0.01 µM)
How it was run: as §1

Bexarotene + Foretinib = compound: C=C(c1ccc(C(=O)O)cc1)c1cc2c(cc1C)C(C)(C)CCC2(C)C [Bexarotene] + COc1cc2c(Oc3ccc(NC(=O)C4(C(=O)Nc5ccc(F)cc5)CC4)cc3F)ccnc2cc1OCCCN1CCOCC1 [Foretinib] (partner 0.25 µM)
How it was run: as §1

Bexarotene + Linsitinib = compound: C=C(c1ccc(C(=O)O)cc1)c1cc2c(cc1C)C(C)(C)CCC2(C)C [Bexarotene] + C[C@]1(O)C[C@@H](c2nc(-c3ccc4ccc(-c5ccccc5)nc4c3)c3c(N)nccn32)C1 [Linsitinib] (partner 1 µM)
How it was run: as §1

| Cell Line | relative viability (Bexarotene + Navitoclax; first compound 0.08 µM) | relative viability (Bexarotene + Navitoclax; first compound 0.253 µM) | relative viability (Bexarotene + Navitoclax; first compound 0.8 µM) | relative viability (Bexarotene + Navitoclax; first compound 2.53 µM) | relative viability (Bexarotene + Navitoclax; first compound 8 µM) | relative viability (Bexarotene + Luminespib; first compound 0.08 µM) | relative viability (Bexarotene + Luminespib; first compound 0.253 µM) | relative viability (Bexarotene + Luminespib; first compound 0.8 µM) | relative viability (Bexarotene + Luminespib; first compound 2.53 µM) | relative viability (Bexarotene + Luminespib; first compound 8 µM) | relative viability (Bexarotene + Foretinib; first compound 0.08 µM) | relative viability (Bexarotene + Foretinib; first compound 0.253 µM) | relative viability (Bexarotene + Foretinib; first compound 0.8 µM) | relative viability (Bexarotene + Foretinib; first compound 2.53 µM) | relative viability (Bexarotene + Foretinib; first compound 8 µM) | relative viability (Bexarotene + Linsitinib; first compound 0.08 µM) | relative viability (Bexarotene + Linsitinib; first compound 0.253 µM) | relative viability (Bexarotene + Linsitinib; first compound 0.8 µM) | relative viability (Bexarotene + Linsitinib; first compound 2.53 µM) | relative viability (Bexarotene + Linsitinib; first compound 8 µM) |
| --- | --- | --- | --- | --- | --- | --- | --- | --- | --- | --- | --- | --- | --- | --- | --- | --- | --- | --- | --- | --- |
| NCI-H3122 | 1.12 | 1.11 | 1.1 | 1.01 | 1.09 | 0.0956 | 0.0599 | 0.0864 | 0.0982 | 0.0732 | 0.99 | 0.988 | 0.957 | 0.9 | 0.975 | 1.14 | 1.08 | 1.1 | 1.07 | 1.14 |
| PC-3 [JPC-3] | 0.86 | 0.904 | 0.754 | 0.797 | 0.693 | 0.645 | 0.618 | 0.635 | 0.775 | 0.616 | 1.13 | 0.949 | 0.941 | 0.99 | 0.891 | 0.98 | 1.03 | 0.829 | 0.882 | 0.827 |
| PC-14 | 1.12 | 1.11 | 0.948 | 0.841 | 0.809 | 0.17 | 0.178 | 0.157 | 0.162 | 0.279 | 1.12 | 1.08 | 0.973 | 1.01 | 0.934 | 0.99 | 1.06 | 0.935 | 1 | 0.934 |
| RERF-LC-KJ | 1.07 | 0.934 | 1.08 | 1 | 0.92 | 1.17 | 1.23 | 1.1 | 1.1 | 1.07 | 0.839 | 0.823 | 0.715 | 0.795 | 0.777 | 0.8 | 0.827 | 0.755 | 0.782 | 0.83 |
| SK-LU-1 | 1.1 | 0.845 |  | 0.645 | 1.09 | 0.201 | 0.188 |  | 0.177 | 0.173 | 0.785 | 0.898 |  | 0.791 | 0.762 | 1.22 | 1.12 |  | 0.93 | 1.23 |
| SK-MES-1 | 1.47 | 1.2 | 1.25 | 1.33 | 1.09 | 0.923 | 0.989 | 0.803 | 0.742 | 0.64 | 1.1 | 0.959 | 1.02 | 1.03 | 0.866 | 1.15 | 1.18 | 0.983 | 1.05 | 0.97 |
| SW 1573 | 1.07 | 0.777 | 0.731 | 0.735 | 0.598 | 0.252 | 0.216 | 0.222 | 0.615 | 0.242 | 1.02 | 0.831 | 0.661 | 0.669 | 0.666 | 0.777 | 0.608 | 0.681 | 0.754 | 0.536 |
| UMC-11 | 0.347 | 0.268 | 0.306 | 0.305 | 0.284 | 1.04 | 0.983 | 0.866 | 0.911 | 0.969 | 1.1 | 1.01 | 0.946 | 1.07 | 0.956 | 1.08 | 1.01 | 1.04 | 0.978 | 0.998 |
